Results on 21 compounds are retold here after US6512000B1, “Aminocarbonyl-substituted benzimidazoles having tryptase-inhibitory activity” (Boehringer Ingelheim Pharma KG, priority 1999, dated 2003).

pIC50: −log10 of the molar value. Structures can show the parent of a compound that is named as a salt.

One assay deals with T1, rh beta tryptase (Homo sapiens, UniProt P20231).
T1 construct: purchased Promega
T1 sequence (P20231 31-275): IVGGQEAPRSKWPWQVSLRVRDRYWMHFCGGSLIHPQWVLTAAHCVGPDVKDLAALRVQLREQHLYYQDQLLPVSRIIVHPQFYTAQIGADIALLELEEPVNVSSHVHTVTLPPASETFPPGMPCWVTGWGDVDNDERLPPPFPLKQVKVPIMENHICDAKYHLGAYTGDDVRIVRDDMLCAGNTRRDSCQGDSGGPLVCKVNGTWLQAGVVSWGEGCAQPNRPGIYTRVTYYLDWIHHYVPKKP
Nature of the assay: Tryptase inhibition test (cleavage of N-p-tosyl-Gly-Pro-Lys-para-nitroaniline, p-nitroaniline measured at 405 nm). Format: biochemical. To be noted: concentration at which 50% of the tryptase enzyme activity is inhibited; substrate 0.6 mM, pH 7.4, 37° C. Summed up:
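Screening at 10 μM gives percent inhibition, with IC50 derived for compounds above 70% inhibition. Enzyme: rh beta tryptase, 0.91 U/ml, pH 7.4 Tris HCl (100 mM), 5 mM Ca, 100 mg/ml heparin. After 5 min compound pre-incubation, 0.6 mM pNA substrate cleaved 5 min at 37 °C, monitored at 405 nm.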
By pIC50 is commonly meant the IC50 on a negative log10 scale, so that one unit is a factor of ten. For the compound `CCOCCCn1c(CCc2ccc(C(=N)N)cc2)nc2cc(C(=O)N(CCN)Cc3ccccc3F)ccc21` [Example 406, 2-[2-(4-amidinophenyl)ethyl]-1-(3-ethoxypropyl)-benzimidazol-5-yl-carboxylic acid-N-(2-aminoethyl)-N-(2-fluorobenzyl)-amide], the pIC50 was 6.41.

Turning to `Cn1c(CCc2ccc(C(=N)N)cc2)nc2cc(C(=O)NCCCc3ccccc3)ccc21` [Example 12, 2-[2-(4-Amidinophenyl)-ethyl]-1-methyl-benzimidazol-5-yl-carboxylic Acid-N-(3-phenylpropyl)-amide-hydrochloride], the pIC50 was 6.32.

Regarding `COc1cccc(CN(CCN)C(=O)c2ccc3c(c2)nc(CCc2ccc(C(=N)N)cc2)n3CC2CC2)c1` [Example 266, 2-[2-(4-amidinophenyl)ethyl]-1-cyclopropylmethyl-benzimidazol-5-yl-carboxylic acid-N-(2-aminoethyl)-N-(3-methoxybenzyl)-amide], the pIC50 was 6.19. The pIC50 values of the last two compounds are within 0.2 log units of each other.

Regarding `Cc1ccccc1N1CCN(C(=O)c2ccc3c(c2)nc(CCc2ccc(C(=N)N)cc2)n3C)CC1` [Example 51, 2-[2-(4-Amidinophenyl)-ethyl]-1-methyl-benzimidazol-5-yl-carboxylic Acid-[N′-(2-methylphenyl)-piperazide]], the pIC50 was 6.64.

Turning to `N=C(N)c1ccc(CCc2nc3cc(C(=O)N(CCN)Cc4ccccc4F)ccc3n2CC2CC2)cc1` [Example 410, 2-[2-(4-amidinophenyl)ethyl]-1-cyclopropylmethyl-benzimidazol-5-yl-carboxylic acid-N-(2-aminoethyl)-N-(2-fluorobenzyl)-amide], the pIC50 was 6.20.

`CCCCN(CCN)C(=O)c1ccc2c(c1)nc(CCc1ccc(C(=N)N)cc1)n2CCCOCC` [Example 278, 2-[2-(4-amidinophenyl)ethyl]-1-(3-ethoxypropyl)-benzimidazol-5-yl-carboxylic acid-N-(2-aminoethyl)-N n-butyl-amide] had a pIC50 of 6.60. This pIC50 lies 0.40 log units higher than the previous one.

For `CCOCCCn1c(CCc2ccc(C(=N)N)cc2)nc2cc(C(=O)N(Cc3ccc(CN)cc3)CC3CCCCC3)ccc21` [Example 150, 2-[2-(4-amidinophenyl)ethyl]-1-(3-ethoxypropyl)-benzimidazol-5-yl-carboxylic acid-N-[4-(amino-methyl)-benzyl]-N-cyclohexylmethyl-amide], the pIC50 is 6.53. This pIC50 and that of the compound before are within 0.2 log units of each other.

With `Cn1c(CCc2ccc(C(=N)N)cc2)nc2cc(C(=O)N(CCC(c3ccccc3)c3ccccc3)Cc3ccc(C(=N)N)cc3)ccc21` [Example 17, 2-[2-(4-Amidinophenyl)-ethyl]-1-methyl-benzimidazol-5-yl-carboxylic Acid-N-(4-amidinobenzyl)-N-(3,3-diphenylpropyl)-amide-dihydrochloride], the pIC50 is 6.97.

In turn, `COc1ccccc1N1CCN(C(=O)c2ccc3c(c2)nc(CCc2ccc(C(=N)N)cc2)n3C)CC1` [Example 53, 2-[2-(4-Amidinophenyl)-ethyl]-1-methyl-benzimidazol-5-yl-carboxylic Acid-[N′-(2-methoxyphenyl)-piperazide]] had a pIC50 of 6.62.

`CN(C(=O)c1ccc2c(c1)nc(CCc1ccc(C(=N)N)cc1)n2C)c1cccnc1` [Example 18, 2-[2-(4-Amidinophenyl)-ethyl]-1-methyl-benzimidazol-5-yl-carboxylic Acid-N-methyl-N-(3-pyridyl)-amide-hydrochloride] showed a pIC50 of 6.51.

In turn, `Cn1c(CCc2ccc(C(=N)N)cc2)nc2cc(C(=O)N(CCC(=N)N)Cc3ccccc3)ccc21` [Example 9, 2-[2-(4-Amidinophenyl)-ethyl]-1-methyl-benzimidazol-5-yl-carboxylic Acid-N-(2-amidinoethyl)-N-benzyl-amide-dihydrochloride] showed a negative-log IC50 (pIC50) of 6.85.

Still in this assay, the particulars now being: inhibition of rh beta tryptase at 10 μM test substance; substrate N-p-tosyl-Gly-Pro-Lys-para-nitroaniline 0.6 mM, pH 7.4, 37° C., 5 minutes.
By inhibition is commonly meant the change of the read-out against control, counted positive when it falls. A low value points to a weak effect. Take `CCOCCCn1c(CCc2ccc(C(=N)N)cc2)nc2cc(C(=O)N(CCN)Cc3ccccc3F)ccc21` [Example 406, 2-[2-(4-amidinophenyl)ethyl]-1-(3-ethoxypropyl)-benzimidazol-5-yl-carboxylic acid-N-(2-aminoethyl)-N-(2-fluorobenzyl)-amide]: the inhibition at 10 µM worked out at 54%.

For `N=C(N)c1ccc(CCc2nc3cc(C(=O)N(CCN)Cc4ccccc4)ccc3n2CCCNC(=O)Cc2ccccc2)cc1` [Example 296, 2-[2-(4-amidinophenyl)ethyl]-1-[3-(benzylcarbonylamino)-propyl]-benzimidazol-5-yl-carboxylie acid-N-(2-aminoethyl)-N-benzyl-amide], the “% Inhibition (10 μM)” value was 51%.

In the case of `COc1cccc(CN(CCN)C(=O)c2ccc3c(c2)nc(CCc2ccc(C(=N)N)cc2)n3CC2CC2)c1` [Example 266, 2-[2-(4-amidinophenyl)ethyl]-1-cyclopropylmethyl-benzimidazol-5-yl-carboxylic acid-N-(2-aminoethyl)-N-(3-methoxybenzyl)-amide], testing at 10 µM gave an inhibition of 61%.

Regarding `N=C(N)c1ccc(CCc2nc3cc(C(=O)N(CCCc4ccccc4)Cc4ccc(CN)cc4)ccc3n2CCCN2CCOCC2)cc1` [Example 177, 2-[2-(4-amidinophenyl)ethyl]-1-[3-(morpholin-4-yl)-propyl]-benzimidazol-5-yl-carboxylic acid-N-[4-(amino-methyl)-benzyl]-N-(3-phenylpropyl)-amide], testing at 10 µM gave an inhibition of 68%.

The compound `COc1cccc(CN(Cc2ccc(CN)cc2)C(=O)c2ccc3c(c2)nc(CCc2ccc(C(=N)N)cc2)n3CCc2ccc(Cl)cc2)c1` [Example 76, 2-[2-(4-amidinophenyl)ethyl]-1-[2-(4-chlorophenyl)ethyl]-benzimidazol-5-yl-carboxylic acid-N-[4-(amino-methyl)-benzyl]-N-(3-methoxybenzyl)-amide] registered an inhibition at 10 µM of 58%.

`N=C(N)c1ccc(CCc2nc3cc(C(=O)N(CCN)Cc4cccc(C(F)(F)F)c4)ccc3n2CC2CCCO2)cc1` (stereo not shown) [Example 402, 2-[2-(4-amidinophenyl)ethyl]-1-(tetrahydrofuran-2-yl-methyl)-benzimidazol-5-yl-carboxylic acid-N-(2-aminoethyl)-N-(3-trifluoromethylbenzyl)-amide] displayed an inhibition at 10 µM of 51%.

As to `N=C(N)c1ccc(CCc2nc3cc(C(=O)N(Cc4ccc(CN)cc4)Cc4ccccc4F)ccc3n2CCc2ccccc2)cc1` [Example 219, 2-[2-(4-amidinophenyl)ethyl]-1-(2-phenylethyl)-benzimidazol-5-yl-carboxylic acid-N-[4-(amino-methyl)-benzyl]-N-(2-fluorobenzyl)-amide], at 10 µM the inhibition was 51%.

Compound `CCCCN(CCN)C(=O)c1ccc2c(c1)nc(CCc1ccc(C(=N)N)cc1)n2CCCOCC` [Example 278, 2-[2-(4-amidinophenyl)ethyl]-1-(3-ethoxypropyl)-benzimidazol-5-yl-carboxylic acid-N-(2-aminoethyl)-N n-butyl-amide] gave an inhibition at 10 µM of 83%.

Take `N=C(N)c1ccc(CCc2nc3cc(C(=O)N(CCN)CCCc4ccccc4)ccc3n2Cc2cccs2)cc1` [Example 371, 2-[2-(4-amidinophenyl)ethyl]-1-(2-thiophenyl-methyl)-benzimidazol-5-yl-carboxylic acid-N-(2-aminoethyl)-N-(3-phenylpropyl)-amide]: the inhibition at 10 µM worked out at 55%.

In turn, `CCOCCCn1c(CCc2ccc(C(=N)N)cc2)nc2cc(C(=O)N(Cc3ccc(CN)cc3)CC3CCCCC3)ccc21` [Example 150, 2-[2-(4-amidinophenyl)ethyl]-1-(3-ethoxypropyl)-benzimidazol-5-yl-carboxylic acid-N-[4-(amino-methyl)-benzyl]-N-cyclohexylmethyl-amide] returned an inhibition at 10 µM of 60%.

For the compound “2-[2-(4-amidinophenyl)ethyl]-1-[2-(4-chlorophenyl)ethyl]-benzimidazol-5-yl-carboxylic acid-N-[4-(amino-methyl)-benzyl]-N-(2-pyridyl)-amide [Example 124]”, the “% Inhibition (10 μM)” value is 55%.

`N=C(N)c1ccc(CCc2nc3cc(C(=O)N(CCN)Cc4ccccc4)ccc3n2CC2CC2)cc1` [Example 298, 2-[2-(4-amidinophenyl)ethyl]-1-cyclopropylmethyl-benzimidazol-5-yl-carboxylic acid-N-(2-aminoethyl)-N-benzyl-amide]: the inhibition at 10 µM was 57%.

For the compound “2-[2-(4-amidinophenyl)ethyl]-1-(3-di-n-butylaminopropyl)-benzimidazol-5-yl-carboxylic acid-N-[4-(amino-methyl)-benzyl]-N-(3-pyridyl)-amide [Example 135]”, the “% Inhibition (10 μM)” value is 64%.

Regarding “2-[2-(4-amidinophenyl)ethyl]-1-[2-(4-chlorophenyl)ethyl]-benzimidazol-5-yl-carboxylic acid-N-[4-(amino-methyl)-benzyl]-N-(3-pyridyl)-amide [Example 140]”, the “% Inhibition (10 μM)” value is given as 63%.
